Laboratory results published in the Bradley open melting point set (2014).

| melting point [°C] | SMILES |
| --- | --- |
| 103 | C(=N\c1ccccc1Nc1ccccc1/N=C/c1ccccc1)/c1ccccc1 |
| 74.5 | CCCCCCSc1cc(N(NC(=O)OC(C)(C)C)C(=O)OC(C)(C)C)cc(SCCCCCC)c1SCCCCCC |
| 121 | C/C=C/C1Nn2c(nnc2-c2cccnc2)S1 (configuration not stated) |
| 91 | O=C1CCCc2cc3c(c(CSc4ccccc4)c21)-c1ccccc1OC3 |
| 244 | C=C1/C(=N/Nc2cc(Cl)c(Cl)cc2Cl)C(=O)N(C)C(=O)N1C |
| 153 | C=CC1=C(/C=N/Nc2ccc([N+](=O)[O-])cc2[N+](=O)[O-])CCCC1 |
| 84 | CC(=O)/C(=N/Nc1cc(Cl)ccc1Cl)C(=O)C(F)(F)F |
| 158 | CC(=O)/N=c1\sc(C(C)=O)nn1-c1ccc(F)cc1 |
| 313 | CC(=O)N(C(C)=O)c1cc(/C=C/C(=O)O)ccc1/C=C/C(=O)O |
| 247 | CC(=O)Nc1ccc(/N=N/c2ccc(/N=N/c3ccc(/N=N/c4ccc(NC(C)=O)cc4)cc3)cc2)cc1 |
| 58 | CC(=O)Oc1c(-c2ccccc2)n(C(C)=O)c2cc([N+](=O)[O-])c(/C(Cl)=C/c3ccccc3)cc12 |
| 162 | CC(C)CCCC(C)C1CC[C@@]2(C)[C@@]34CCC5[C@H](C)[C@@H](O)CC[C@]5(C)[C@]3(CC[C@]12C)O4 (some centres not stated) |
| 2 | Cc1c(C)c2c(c(C)c1O)CC[C@@](C)(CCC[C@H](C)CCC[C@H](C)CCCC(C)C)O2 |
| 156 | CC1(C)C(=O)OC2=C(CCC/C2=C\c2ccccc2)C1c1ccccc1 (configuration not stated) |
| 107 | CC12CCC(/C(=C/N(O)c3ccccc3)C1=O)C2(C)C (configuration not stated) |
| 123 | CC1=NN(CN2CCCCC2)C(=O)/C1=N\Nc1ccc(Cl)cc1Cl |
| 65 | CC1CCC(C(C)C)C(OC(=O)/C(=C/c2ccccc2)Cc2ccccc2)C1 (configuration not stated) |
| 46 | CC1CCC(C(C)C)C(OC(=O)C(=O)/C=C/c2ccccc2)C1 (configuration not stated) |
| 147 | CCOC(=O)/C(=N/Nc1cc(Cl)ccc1Cl)C(=O)C(F)(F)F |
| 76 | CCOC(=O)/C(=N/Nc1ccc(Cl)cc1)C(=O)C(F)(F)F |
| 74 | CCOC(=O)/C(=N/Nc1ccccc1[N+](=O)[O-])C(C)=O |
| 147 | CCOC1Oc2ccc(C)cc2C(=O)/C1=C\Nc1nc2ccc(Cl)cc2s1 (configuration not stated) |
| 108 | Cc1c(N(C)C)c(=O)n(-c2ccccc2)n1C |

| melting point [°C] | SMILES |
| --- | --- |
| 134 | CN(C)c1ccc(/C=C(/C#N)c2nc(-c3ccc(Cl)cc3)cs2)cc1 |
| 128 | CN(C)c1ccc(C=C/C(=N\Nc2ccccc2)c2ccccc2)cc1 |
| 119 | COC1=C(OC)/C(=C/C2CCC=CC23OC(=O)C(OC)=C3OC)OC1=O (configuration not stated) |
| 164 | COc1cc(/C=C/C(=O)NCCc2ccc(OCc3ccccc3)c(OC)c2)ccc1OCc1ccccc1 |
| 97 | COc1cc(C)c2c(c1)CC/C(=C\c1ccccc1)C2=O |
| 156 | COc1ccc(-c2csc(/C(C#N)=N/Nc3cc(C)ccc3C)n2)cc1 |
| 152 | COc1ccc(-c2csc(/C(C#N)=N/Nc3ccc(C)cc3)n2)cc1 |
| 138 | COc1ccc(/C=C(\Oc2ccc(Cl)cc2)c2nc3ccccc3s2)cc1 |
| 133 | COc1ccc(/C=C2\N=C(c3ccccc3)OC2=O)cc1OC |
| 159 | COc1ccc(/N=N/c2sc(CC#N)nc2C)cc1 |
| 151 | COc1ccc(N/N=C(\C#N)c2nc(-c3ccccc3)cs2)cc1 |
| 143 | COc1ccc(N/N=C2/C(=O)N(CO)N=C2C(F)(F)F)cc1 |
| 97 | COc1ccccc1-c1ccc(/C=C/C(=O)c2ccco2)o1 |
| 138 | Cc1ccc(/C=C(\Oc2cccc(C)c2)c2nc3ccccc3s2)cc1 |
| 114 | Cc1ccc(C(=O)c2nn(-c3ccccc3)/c(=N\N=C\c3ccco3)s2)cc1 |
| 158 | Cc1cccc(N/N=C(\C#N)c2nc(-c3ccc(Cl)cc3)cs2)c1 |
| 139 | Cc1nc(/C(C#N)=C\c2ccc(Cl)cc2Cl)sc1/N=N/c1ccc(F)cc1 |
| 146 | CC(=O)N1CCN(c2ccc(OCC3COC(Cn4ccnc4)(c4ccc(Cl)cc4Cl)O3)cc2)CC1 (configuration not stated) |
| 264 | O=c1ncn2nc(Sc3ccccc3)ccc2c1-c1c(Cl)cccc1Cl |
| 134 | Cn1c(/C(C#N)=C/c2ccc(F)cc2)nc2ccccc21 |
| 161 | Cn1c(/C(C#N)=N/Nc2ccc(Cl)cc2Cl)nc2ccccc21 |
| 109 | O=C(Nc1ccccn1)C(C(F)(F)F)C(F)(F)F |
| 137 | CCCCOc1ccc(NC(=O)C(F)(F)C(F)(F)C(F)(F)C(F)(F)C(F)(F)C(F)(F)C(F)(F)C(F)(F)F)cc1 |

| melting point [°C] | SMILES |
| --- | --- |
| 131 | N#C/C(=C\c1ccc(Cl)cc1)c1nc(-c2cccc3ccccc23)cs1 |
| 165 | C(=NNc1ccccc1)C(=NNc1ccccc1)c1cccc(C(C=NNc2ccccc2)=NNc2ccccc2)c1 |
| 274 | NS(=O)(=O)c1cc2c(cc1Cl)NCNS2(=O)=O |
| 292 | Nc1ccc(/N=N/c2ccc(/N=N/c3ccc(/N=N/c4ccc(/N=N/c5ccc(N)cc5)cc4)cc3)cc2)cc1 |
| 124 | COc1ccc(C=C2C3=C(CCCC3)OC3=C2CCCC3)cc1 |
| 106 | COc1ccc(C(=O)Nc2ccc(-c3ccc4nn(-c5ccccc5)nc4c3)cc2)cc1 |
| 230 | CCn1cc(C(=O)O)c(=O)c2ccc(C)nc21 |
| 210 | Cc1cc(C2(c3cc(C)c(O)c(CN(CC(=O)O)CC(=O)O)c3)OS(=O)(=O)c3ccccc32)cc(CN(CC(=O)O)CC(=O)O)c1O |
| 132 | CC(C)(C)OC(=O)NCCCC[C@H](NC(=O)OCC1c2ccccc2-c2ccccc21)C(=O)O |
| 139 | COC(=O)c1cc2ccccc2c(OC(=O)c2ccccc2C)c1C(=O)OC |
| 50 | CC1CCC(C(C)C)C(OC(=O)C2(C)CCC(C)C2(C)C)C1 (configuration not stated) |
| 118 | CC(=O)OC1CCC2(C)C3CCC4=C(CCC4(C)C(C)OC(C)=O)C3CCC2(C)C1 (configuration not stated) |
| 134 | CC(=O)OC1COC(C#N)C(OC(C)=O)C1OC(C)=O (configuration not stated) |
| 111 | Cc1ccc(C(=O)OC2CC(C#N)OC2OC(=O)c2ccc(C)cc2)cc1 (configuration not stated) |
| 114 | CC(=O)OCC1OC(C#N)=CC(OC(C)=O)C1OC(C)=O (configuration not stated) |
| 210 | O=C(OC[C@H]1O[C@@H](OC(=O)c2cc(O)c(O)c(OC(=O)c3cc(O)c(O)c(O)c3)c2)[C@H](OC(=O)c2cc(O)c(O)c(OC(=O)c3cc(O)c(O)c(O)c3)c2)[C@@H](OC(=O)c2cc(O)c(O)c(OC(=O)c3cc(O)c(O)c(O)c3)c2)[C@@H]1OC(=O)c1cc(O)c(O)c(OC(=O)c2cc(O)c(O)c(O)c2)c1)c1cc(O)c(O)c(OC(=O)c2cc(O)c(O)c(O)c2)c1 |
| 151 | O=C(c1ccc(Cl)cc1)c1nn(-c2ccccc2)/c(=N\N=C\c2ccc(F)cc2)s1 |
| 106 | O=C1/C(=N\Nc2cccc(F)c2)C(C(F)(F)F)=NN1c1ccccc1 |
| 174 | CC(C)C1=C(O)C(=O)C2=C(C1=O)C(O)CC1C(C)(C)CCCC21C (configuration not stated) |
| 227 | O=C1C2CC3=C(CC=CC3)CC2C(=O)C2CC3=C(CC=CC3)CC12 (configuration not stated) |
| 90 | CC(=O)OC1CCCC2=CC(=O)CCC21C (configuration not stated) |
| 188 | CC12CCC(=O)CC1CCC1C2CCC2(C)C1CCC21OCCO1 (configuration not stated) |
| 159 | CC1=C(C(=O)OCc2ccccc2)C(c2ccc3c(c2)OCO3)NC(=O)N1 (configuration not stated) |

| melting point [°C] | SMILES |
| --- | --- |
| 269 | O=C1OC(=O)C23Cc4ccccc4CC12Cc1ccccc1C3 (configuration not stated) |
| 117 | COC(=O)C12C=CC(CC1)C1C(=O)OC(=O)C12 (configuration not stated) |
| 70 | CC12C=CC(O1)C1C(=O)OC(=O)C12 (configuration not stated) |
| 160 | O=C1OC(c2ccccc2)=N/C1=C/c1ccc(-c2ccccc2Br)o1 |
| 166 | COc1ccc2c(c1)CC1(CCC(O)(c3ccc(C(C)(C)C)cc3)CC1)C2=O (configuration not stated) |
| 249 | O=C(O)c1cc(/N=N/c2ccc(S(=O)(=O)Nc3ccccn3)cc2)ccc1O |
| 163 | O=[N+]([O-])c1ccc(N/N=C/C2=C(/C=C/c3ccccc3)CCCC2)c([N+](=O)[O-])c1 |
| 275 | O=[N+]([O-])c1ccc(N/N=C2/Cc3c2ccc2ccccc32)c([N+](=O)[O-])c1 |
| 81 | CCCCCCCCCCCCCCCCCCN1c2ccccc2C(C)(C)C12C=Cc1cc([N+](=O)[O-])ccc1O2 (configuration not stated) |
| 101 | CC12CCC(O)CC1CC1(OCCO1)C1C2CCC2(C)C1CCC21OCCO1 (configuration not stated) |
| 238 | CC(C)CCCC(C)C1CCC2C3CC(O)C4(O)CC(O)CCC4(C)C3CCC12C (configuration not stated) |
| 104 | CC(CCc1oc2ccc(C)cc2c1-c1ccc(C)o1)=NO |
| 180 | COc1cc(/C=C/C(=O)CC(=O)/C=C/c2ccc(O)c(OC)c2)ccc1O |
| 180 | C[C@H](Cc1ccc(O)c(O)c1)[C@@H](C)Cc1ccc(O)c(O)c1 |
| 101 | CCSC(SCC)=C1CCCC(=C(SCC)SCC)C1=C(C#N)C#N |
| 86 | CCOC(=O)C=C1SC(N2CCCCC2)C(=O)N1CC (configuration not stated) |
| 144 | CN(C)c1ccc(C2Nn3c(COc4ccccc4)nnc3S2)cc1 (configuration not stated) |
| 129 | COc1ccc(NC(=S)c2cc(C(C)(C)C)c(O)c(C(C)(C)C)c2)cc1 |
| 218 | CCOC(=O)C12C(c3ccccc3O[P+]1([O-])OCC)C1(C(=O)OCC)C2c2ccccc2O[P+]1([O-])OCC (configuration not stated) |
| 159 | FC(F)(F)c1cc(-c2cccs2)nc2cc(-c3cccs3)nn12 |

| SMILES | melting point [°C] |
| --- | --- |
| CCN(Cc1ccc(Cl)nc1)/C(=C/[N+](=O)[O-])NC | 72 |
| ClC1=C(Cl)[C@]2(Cl)[C@@H]3[C@@H]4C[C@@H]([C@H]5O[C@@H]45)[C@@H]3[C@@]1(Cl)C2(Cl)Cl | 176 |
| O=C(O)C1C(C(=O)O)C2(Cl)C(Cl)=C(Cl)C1(Cl)C2(Cl)Cl (configuration not stated) | 240 |
| ClC1=C(Cl)[C@]2(Cl)C3C(Cl)C(Cl)CC3[C@@]1(Cl)C2(Cl)Cl (some centres not stated) | 106 |
| CCCOC1CCC2C3CC=C4CC5(CCC4(C)C3CCC12C)OCCO5 (configuration not stated) | 209 |
| CC1NC(C(=O)O)CC2=C3C=CCC=C3N=C21 (configuration not stated) | 244 |
| CC[C@@H](C(=O)[C@@H](C)[C@@H](O)[C@H](C)[C@@H]1O[C@@H]([C@@H](CC)C(=O)O)CC[C@@H]1C)[C@H]1O[C@]2(C=C[C@@H](O)[C@]3(CC[C@@](C)([C@H]4CC[C@](O)(CC)[C@H](C)O4)O3)O2)[C@H](C)C[C@@H]1C | 113 |
| C[C@@H]1C[C@@H]([C@H](O)CC2CC(=O)NC(=O)C2)C(=O)[C@@H](C)C1 | 120 |
